# Source: ChEMBL document CHEMBL1201862, “PubChem BioAssay data set” (2004)
#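 48-hour exposure; five concentrations; linearly interpolated endpoints. Abbreviation: GI50, concentration required for 50% inhibition of growth.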 The source made the active and inactive calls. Cut-off read from the data, not from the text of the source: active = GI50 up to about 1.1 µM and inactive = higher.
# Tests used:
# Test in all cases: DTP human tumour cell line panel, 48 h
# MOLT-4 = test system: MOLT-4
# IGROV-1 = test system: IGROV-1
# DMS-273 = test system: DMS-273
# KM-20L2 = test system: KM-20L2
# NCI-H460 = test system: NCI-H460
# OVCAR-4 = test system: OVCAR-4
# HOP-92 = test system: HOP-92
# HT-29 = test system: HT-29
# SF-539 = test system: SF-539
# A549 = test system: A549
# M14 = test system: M14
# ACHN = test system: ACHN
# SNB-75 = test system: SNB-75
# SR = test system: SR
# SK-MEL-28 = test system: SK-MEL-28
# SK-MEL-2 = test system: SK-MEL-2
# SF-295 = test system: SF-295
# SNB-19 = test system: SNB-19
# RPMI-8226 = test system: RPMI-8226
# CAKI-1 = test system: CAKI-1
# SNB-78 = test system: SNB-78
# EKVX = test system: EKVX
# HCT-116 = test system: HCT-116
# SW-620 = test system: SW-620
# NCI-H23 = test system: NCI-H23
# NCI-H522 = test system: NCI-H522
# HL-60 = test system: HL-60
# A498 = test system: A498
# OVCAR-5 = test system: OVCAR-5
# SF-268 = test system: SF-268
# TK-10 = test system: TK-10
# DMS-114 = test system: DMS-114
# RXF 393 = test system: RXF 393
# OVCAR-8 = test system: OVCAR-8
# NCI-H226 = test system: NCI-H226
# SK-MEL-5 = test system: SK-MEL-5
# UO-31 = test system: UO-31
# SK-OV-3 = test system: SK-OV-3
# U-251 = test system: U-251
# K562 = test system: K562
# KM12 = test system: KM12
# DLD-1 = test system: DLD-1
# HOP-62 = test system: HOP-62
# SN12C = test system: SN12C
# UACC-257 = test system: UACC-257
# Malme-3M = test system: Malme-3M
# LXFL 529 = test system: LXFL 529
# COLO 205 = test system: COLO 205
# HCC 2998 = test system: HCC 2998
# 786-0 = test system: 786-0
# UACC-62 = test system: UACC-62
# OVCAR-3 = test system: OVCAR-3
# HOP-18 = test system: HOP-18
# M19-MEL = test system: M19-MEL
# HCT-15 = test system: HCT-15
# LOX IMVI = test system: LOX IMVI
# CCRF-CEM = test system: CCRF-CEM
compound,measurement,setting,value
CCCN/C(N)=N/C#N,GI50,MOLT-4,> 100 µM (inactive)
same,GI50,IGROV-1,> 100 µM (inactive)
same,GI50,DMS-273,62.1 µM (inactive)
same,GI50,KM-20L2,34.7 µM (inactive)
same,GI50,NCI-H460,> 100 µM (inactive)
same,GI50,OVCAR-4,37.1 µM (inactive)
same,GI50,HOP-92,> 100 µM (inactive)
same,GI50,HT-29,30.8 µM (inactive)
same,GI50,SF-539,> 100 µM (inactive)
same,GI50,A549,> 100 µM (inactive)
same,GI50,M14,> 100 µM (inactive)
same,GI50,ACHN,> 100 µM (inactive)
same,GI50,SNB-75,> 100 µM (inactive)
same,GI50,SR,25.1 µM (inactive)
same,GI50,SK-MEL-28,> 100 µM (inactive)
same,GI50,SK-MEL-2,> 100 µM (inactive)
same,GI50,SF-295,> 100 µM (inactive)
same,GI50,SNB-19,> 100 µM (inactive)
same,GI50,RPMI-8226,> 100 µM (inactive)
same,GI50,CAKI-1,> 100 µM (inactive)
same,GI50,SNB-78,> 100 µM (inactive)
same,GI50,EKVX,> 100 µM (inactive)
same,GI50,HCT-116,67 µM (inactive)
same,GI50,SW-620,13.6 µM (inactive)
same,GI50,NCI-H23,> 100 µM (inactive)
same,GI50,NCI-H522,> 100 µM (inactive)
same,GI50,HL-60,> 100 µM (inactive)
same,GI50,A498,67.6 µM (inactive)
same,GI50,OVCAR-5,> 100 µM (inactive)
same,GI50,SF-268,44.2 µM (inactive)
same,GI50,TK-10,> 100 µM (inactive)
same,GI50,DMS-114,19.4 µM (inactive)
same,GI50,RXF 393,> 100 µM (inactive)
same,GI50,OVCAR-8,> 100 µM (inactive)
same,GI50,NCI-H226,> 100 µM (inactive)
same,GI50,SK-MEL-5,> 100 µM (inactive)
same,GI50,UO-31,> 100 µM (inactive)
same,GI50,SK-OV-3,> 100 µM (inactive)
same,GI50,U-251,46.7 µM (inactive)
same,GI50,K562,60.3 µM (inactive)
same,GI50,KM12,> 100 µM (inactive)
same,GI50,DLD-1,66.8 µM (inactive)
same,GI50,HOP-62,> 100 µM (inactive)
same,GI50,SN12C,> 100 µM (inactive)
same,GI50,UACC-257,> 100 µM (inactive)
same,GI50,Malme-3M,> 100 µM (inactive)
same,GI50,LXFL 529,76.6 µM (inactive)
same,GI50,COLO 205,18 µM (inactive)
same,GI50,HCC 2998,> 100 µM (inactive)
same,GI50,786-0,25.3 µM (inactive)
same,GI50,UACC-62,> 100 µM (inactive)
same,GI50,OVCAR-3,> 100 µM (inactive)
same,GI50,HOP-18,> 100 µM (inactive)
same,GI50,M19-MEL,77.6 µM (inactive)
same,GI50,HCT-15,19.4 µM
C=C1C(=O)c2cc3c(cc2C(c2cc(OC)c(OC)c(OC)c2)[C@@H]1C(=O)O)OCO3 (some centres undefined),GI50,MOLT-4,37.9 µM (inactive)
same,GI50,IGROV-1,82 µM (inactive)
same,GI50,DMS-273,> 10 µM (inactive)
same,GI50,NCI-H460,37.1 µM (inactive)
same,GI50,HOP-92,15.5 µM (inactive)
same,GI50,HT-29,37.2 µM (inactive)
same,GI50,SF-539,63.7 µM (inactive)
same,GI50,A549,80.4 µM (inactive)
same,GI50,M14,28.1 µM (inactive)
same,GI50,ACHN,> 100 µM (inactive)
same,GI50,SNB-75,20.5 µM (inactive)
same,GI50,LOX IMVI,43.6 µM (inactive)
same,GI50,SK-MEL-28,69.7 µM (inactive)
same,GI50,SF-295,38.3 µM (inactive)
same,GI50,RPMI-8226,39.3 µM (inactive)
same,GI50,CAKI-1,54.2 µM (inactive)
same,GI50,SNB-78,49.1 µM (inactive)
same,GI50,EKVX,> 100 µM (inactive)
same,GI50,HCT-116,48.4 µM (inactive)
same,GI50,SW-620,53.2 µM (inactive)
same,GI50,NCI-H23,57.7 µM (inactive)
same,GI50,NCI-H522,28.3 µM (inactive)
same,GI50,A498,32.6 µM (inactive)
same,GI50,TK-10,> 100 µM (inactive)
same,GI50,DMS-114,36.7 µM (inactive)
same,GI50,RXF 393,43.9 µM (inactive)
same,GI50,OVCAR-8,> 100 µM (inactive)
same,GI50,NCI-H226,> 100 µM (inactive)
same,GI50,SK-MEL-5,50.7 µM (inactive)
same,GI50,UO-31,58.6 µM (inactive)
same,GI50,SK-OV-3,42.6 µM (inactive)
same,GI50,U-251,49.9 µM (inactive)
same,GI50,K562,32.1 µM (inactive)
same,GI50,KM12,44.5 µM (inactive)
same,GI50,DLD-1,55.3 µM (inactive)
same,GI50,SN12C,43.1 µM (inactive)
same,GI50,UACC-257,67 µM (inactive)
same,GI50,Malme-3M,50.6 µM (inactive)
same,GI50,LXFL 529,51.5 µM (inactive)
same,GI50,CCRF-CEM,33 µM (inactive)
same,GI50,COLO 205,39.3 µM (inactive)
same,GI50,HCC 2998,> 100 µM (inactive)
same,GI50,786-0,37 µM (inactive)
same,GI50,UACC-62,27 µM (inactive)
same,GI50,OVCAR-3,23.2 µM (inactive)
same,GI50,HOP-18,> 100 µM (inactive)
same,GI50,M19-MEL,49.1 µM (inactive)
same,GI50,HCT-15,38 µM
CC(C)C(N)=O [ISOBUTYRAMIDE],GI50,MOLT-4,> 5000 µM (inactive)
same,GI50,IGROV-1,> 5000 µM (inactive)
same,GI50,DMS-273,> 5000 µM (inactive)
same,GI50,NCI-H460,> 5000 µM (inactive)
same,GI50,OVCAR-4,> 5000 µM (inactive)
same,GI50,HOP-92,> 5000 µM (inactive)
same,GI50,HT-29,> 5000 µM (inactive)
same,GI50,SF-539,> 5000 µM (inactive)
same,GI50,A549,> 5000 µM (inactive)
same,GI50,M14,> 5000 µM (inactive)
same,GI50,ACHN,> 5000 µM (inactive)
same,GI50,SNB-75,> 5000 µM (inactive)
same,GI50,LOX IMVI,> 5000 µM (inactive)
same,GI50,SR,> 5000 µM (inactive)
same,GI50,SK-MEL-28,> 5000 µM (inactive)
same,GI50,SK-MEL-2,> 5000 µM (inactive)
same,GI50,SF-295,> 5000 µM (inactive)
same,GI50,RPMI-8226,> 5000 µM (inactive)
same,GI50,CAKI-1,> 5000 µM (inactive)
same,GI50,SNB-78,> 5000 µM (inactive)
same,GI50,HCT-116,> 5000 µM (inactive)
same,GI50,SW-620,> 5000 µM (inactive)
same,GI50,NCI-H23,> 5000 µM (inactive)
same,GI50,NCI-H522,> 5000 µM (inactive)
same,GI50,HL-60,> 5000 µM (inactive)
same,GI50,OVCAR-5,> 5000 µM (inactive)
same,GI50,SF-268,> 5000 µM (inactive)
same,GI50,TK-10,> 5000 µM (inactive)
same,GI50,DMS-114,> 5000 µM (inactive)
same,GI50,RXF 393,> 5000 µM (inactive)
same,GI50,OVCAR-8,> 5000 µM (inactive)
same,GI50,NCI-H226,> 5000 µM (inactive)
same,GI50,SK-MEL-5,> 5000 µM (inactive)
same,GI50,UO-31,> 5000 µM (inactive)
same,GI50,SK-OV-3,> 5000 µM (inactive)
same,GI50,U-251,> 5000 µM (inactive)
same,GI50,K562,> 5000 µM (inactive)
same,GI50,KM12,> 5000 µM (inactive)
same,GI50,DLD-1,> 5000 µM (inactive)
same,GI50,HOP-62,> 5000 µM (inactive)
same,GI50,SN12C,> 5000 µM (inactive)
same,GI50,UACC-257,> 5000 µM (inactive)
same,GI50,Malme-3M,> 5000 µM (inactive)
same,GI50,LXFL 529,> 5000 µM (inactive)
same,GI50,CCRF-CEM,> 5000 µM (inactive)
same,GI50,COLO 205,> 5000 µM (inactive)
same,GI50,786-0,> 5000 µM (inactive)
same,GI50,UACC-62,> 5000 µM (inactive)
same,GI50,HOP-18,> 5000 µM (inactive)
same,GI50,M19-MEL,> 5000 µM (inactive)
same,GI50,HCT-15,> 5000 µM
